Experimental data from US8778963B2, “Hydroxylamine and oxime substituted imidazoquinolines, imidazopyridines, and imidazonaphthyridines” (3M Innovative Properties Company, priority 2003, dated 2014).
Where a name gives a salt, the structure may show the parent alone.

SMILES	melting point [°C]
CCCCc1nc2c(N)nc3cccnc3c2n1CCC/C(C)=N/OC [Example 4, 5-(4-Amino-2-butyl-1H-imidazo[4,5-c][1,5]naphthyridin-1-yl)-pentan-2-one O-methyloxine]	132 to 134
CCCc1nc2c(N)nc3cccnc3c2n1CCCCN(OC)C(C)=O [Example 1, N-[4-(4-Amino-2-propyl-1H-imidazo[4,5-c]-1,5-naphthyridin-1-yl)butyl]-N-methoxyacetamide]	155 to 156
CCCc1nc2c(N)nc3c(c2n1CCCCN(O)C(=O)NC(C)C)CCCC3 [Example 50, N-[4-(4-Amino-2-propyl-6,7,8,9-tetrahydro-1H-imidazo[4,5-c]quinolin-1-yl)butyl]-N-hydroxy-N′-isopropylurea]	178 to 180
CCCc1nc2c(N)nc3ccccc3c2n1CCCCN(O)C(C)=O [Example 43, N-[4-(4-Amino-2-propyl-1H-imidazo[4,5-c]quinolin-1-yl)butyl]-N-hydroxyacetamide]	191 to 193
CCOCc1nc2c(N)nc3ccccc3c2n1CCCC(C)=NOCc1ccccc1 (as salt: hydrochloride) [Example 36, 5-(4-Amino-2-ethoxymethyl-1H-imidazo[4,5-c]quinolin-1-yl)pentan-2-one O-benzyloxime hydrochloride]	184 to 186
CCCCc1nc2c(N)nc3ccccc3c2n1CCCC(C)=NOC [Example 33, 5-(4-Amino-2-butyl-1H-imidazo[4,5-c]quinolin-1-yl)pentan-2-one O-methyloxime]	157 to 159
CCOCc1nc2c(N)nc3cccnc3c2n1CCCCN(OC)C(=O)NC(C)C [Example 21, 1-[4-(4-Amino-2-ethoxymethyl-1H-imidazo[4,5-c][1,5]naphthyridin-1-yl)butyl]-3-isopropyl-1-methoxyurea]	146 to 147
CON=C(C)CC(C)(C)Cn1c(C)nc2c(N)nc3ccccc3c21 [Example 39, 5-(4-Amino-2-methyl-1H-imidazo[4,5-c]quinolin-1-yl)-4,4-dimethylpentan-2-one O-methyl-oxime]	193 to 195
CCCCc1nc2c(N)nc3ccccc3c2n1CCCC(=NO)c1ccccc1 [Example 28, 4-(4-Amino-2-butyl-1H-imidazo[4,5-c]quinolin-1-yl)-1-phenylbutan-1-one oxime]	242 to 244
CCCc1nc2c(N)nc(C)c(C)c2n1CCCCN(O)C(=O)c1ccccc1 [Example 25, N-Hydroxy-N-[4-(4-amino-6,7-dimethyl-2-propyl-1H-imidazo[4,5-c]pyridin-1-yl)-butyl]benzamide]	132 to 134
CCCc1nc2c(N)nc(C)c(C)c2n1CCCCN(OC)C(=O)c1ccccc1 [Example 27, N-Methoxy-N-[4-(4-amino-6,7-dimethyl-2-propyl-1H-imidazo[4,5-c]pyridin-1-yl)-butyl]benzamide]	136 to 137
CCOCc1nc2c(N)nc3cccnc3c2n1CCCCN(OC)C(C)=O [Example 20, N-[4-(4-amino-2-ethoxymethyl-1H-imidazo[4,5-c][1,5]naphthyridin-1-yl)butyl]-N-Methoxyacetamide]	180 to 181
CCCc1nc2c(N)nc(C)c(C)c2n1CCCCN(OC)C(=O)OC(C)(C)C [Example 26, N-[4-(4-Amino-6,7-dimethyl-2-propyl-1H-imidazo[4,5-c]pyridin-1-yl)butyl]-N-[tert-butyl-carbamate]-O-methylhydroxylamine]	127 to 128
CCc1nc2c(N)nc3ccccc3c2n1CCCNOC [Example 51, N-[3-(4-Amino-2-ethyl-1H-imidazo[4,5-c]quinolin-1-yl)propyl]-O-methylhydroxylamine]	210 to 213
CC(CCCn1c(C)nc2c(N)nc3ccccc3c21)=NO [Example 30, 5-(4-Amino-2-methyl-1H-imidazo[4,5-c]quinolin-1-yl)pentan-2-one oxime]	264 to 266
CCCc1nc2c(N)nc(C)c(C)c2n1CCCCN(O)C(=O)NC(C)C [Example 23, 1-[4-(4-Amino-6,7-dimethyl-2-propyl-1H-imidazo[4,5-c]pyridin-1-yl)butyl]-1-hydroxy-3-isopropylurea]	138.5 to 140
CCCc1nc2c(N)nc(C)c(C)c2n1CCCCN(O)C(C)=O [Example 15, N-[4-(4-Amino-6,7-dimethyl-2-propyl-1-imidazo[4,5-c]pyridin-1-yl)butyl]-N-hydroxyacetamide]	164 to 166
CON=C(C)CC(C)(C)Cn1cnc2c(N)nc3ccccc3c21 [Example 41, 5-(4-Amino-1H-imidazo[4,5-c]quinolin-1-yl)-4,4-dimethylpentan-2-one O-methyloxime]	148 to 150
CCOCc1nc2c(N)nc3ccccc3c2n1CCCC(C)=NOC (as salt: hydrochloride) [Example 35, 5-(4-Amino-2-ethoxymethyl-1H-imidazo[4,5-c]quinolin-1-yl)pentan-2-one O-methyloxime hydrochloride]	189 to 192
CCOCc1nc2c(N)nc3ccccc3c2n1C/C(CC)=N/OC [Example 48, 1-[4-Amino-2-(ethoxymethyl)-1H-imidazo[4,5-c]quinolin-1-yl]butan-2-one O-methyloxime]	175 to 178
CCCCc1nc2c(N)nc3ccccc3c2n1CCCC(=NOC)c1ccccc1 [Example 29, 4-(4-Amino-2-butyl-1H-imidazo[4,5-c]quinolin-1-yl)-1-phenylbutan-1-one O-methyloximie]	198 to 200
CCCCc1nc2c(N)nc3ccccc3c2n1CCC/C=N/OC [Example 42, (1E,Z)-4-(4-amino-2-butyl-1H-imidazo[4,5-c]quinolin-1-yl)butanal O-methyloxime]	153 to 155
CON(CCCCn1c(C)nc2c(N)nc3ccccc3c21)C(N)=O [Example 46, N-[4-(4-Amino-2-methyl-1H-imidazo[4,5-c]quinolin-1-yl)butyl]-N-methoxyurea]	158 to 160
CCCc1nc2c(N)nc(C)c(C)c2n1CCCCN(O)C(=O)OC(C)(C)C [Example 14, N-[4-(4-Amino-6,7-dimethyl-2-propyl-1H-imidazo[4,5-c]pyridin-1-yl)butyl]-N-[tert-butyl carbamate]hydroxylamine]	157 to 158.5
CCOCc1nc2c(N)nc3ccccc3c2n1CCCC(C)=NO [Example 34, 5-(4-Amino-2-ethoxymethyl-1H-imidazo[4,5-c]quinolin-1-yl)pentan-2-one oxime]	220 to 223

Continued, values first:

melting point [°C]	SMILES
193 to 194	CCCc1nc2c(N)nc3ccccc3c2n1CCCC(C)N(OC)C(=O)NCC (stereo not drawn) [Example 12, 1-[4-(4-Amino-2-propyl-1H-imidazo[4,5-c]quinolin-1-yl)-1-methylbutyl]-3-ethyl-1-methoxyurea]
140 to 142	CCCc1nc2c(N)nc3ccccc3c2n1CCCC(C)N(OC)C(=O)Nc1ccccc1 (stereo not drawn) [Example 11, 1-[4-(4-Amino-2-propyl-1H-imidazo[4,5-c]quinolin-1-yl)-1-methylbutyl]-1-methoxy-3-phenylurea]
191 to 192	CCCc1nc2c(N)nc3cc(-c4ccccc4)ccc3c2n1CCCC(C)=NOC [Example 17, 5-(4-Amino-7-phenyl-2-propyl-1H-imidazo[4,5-c]quinolin-1-yl)pentan-2-one O-methyloxime]
158 to 159	CCCc1nc2c(N)nc3cccnc3c2n1CCCC(C)N(OC)C(C)=O (stereo not drawn) [Example 22, N-Methoxy-N-[4-(4-amino-2-propyl-1H-imidazo[4,5-c][1,5]naphthyridin-1-yl)1-methyl-butyl]acetamide]
161 to 162	CCCc1nc2c(N)nc3cccnc3c2n1CCCCN(OC)C(=O)NC(C)C [Example 3, N-[4-(4-Amino-2-propyl-1H-imidazo[4,5-c][1,5]naphthyridin-1-yl)butyl]-N′-isopropyl-N-methoxyurea]
101 to 103	CCCc1nc2c(N)nc3cc(-c4ccccc4)ccc3c2n1CCCC(C)N(OC)C(=O)NC(C)C (stereo not drawn) [Example 18, 1-[4-(4-Amino-7-phenyl-2-propyl-1H-imidazo[4,5-c]quinolin-1-yl)-1-methylbutyl]-3-isopropyl-1-methoxyurea]
138 to 140	CCCc1nc2c(N)nc3ccccc3c2n1CCCCN(OC)C(C)=O [Example 6, N-[4-(4-Amino-2-propyl-1H-imidazo[4,5-c]quinolin-1-yl)butyl]-N-methoxyacetamide]
146 to 148	CCOCc1nc2c(N)nc3ccccc3c2n1CCCC(C)N(OC)S(C)(=O)=O (stereo not drawn) [Example 13, N-[4-(4-Amino-2-ethoxymethyl-1H-imidazo[4,5-c]quinolin-1-yl)-1-methylbutyl]-N-methoxymethanesulfonamide]
179 to 181	CCCc1nc2c(N)nc3ccccc3c2n1CCCCN(OC)C(N)=O [Example 7, 1-[4-(4-Amino-2-propyl-1H-imidazo[4,5-c]quinolin-1-yl)butyl]-1-methoxyurea]
178 to 188	CCCc1nc2c(N)nc3ccccc3c2n1CCCCN(OC)S(C)(=O)=O [Example 8, N-[4-(4-Amino-2-propyl-1H-imidazo[4,5-c]quinolin-1-yl)butyl]-N-methoxymethanesulfonamide]
140 to 142	CCCc1nc2c(N)nc3ccccc3c2n1CCCC(C)N(OC)C(C)=O (stereo not drawn) [Example 10, N-[4-(4-Amino-2-propyl-1H-imidazo[4,5-c]quinolin-1-yl)-1-methylbutyl]-N-methoxy-acetamide]
207 to 209	CCCc1nc2c(N)nc3ccccc3c2n1CCCC(CC(C)C)=NO [Example 37, 1-(4-Amino-2-propyl-1H-imidazo[4,5-c]quinolin-1-yl)-6-methylheptan-4-one oxime]
125 to 127	CCCc1nc2c(N)nc3cccnc3c2n1CCCCN(OC)C(=O)c1ccccc1 [Example 2, N-[4-(4-Amino-2-propyl-1H-imidazo[4,5-c][1,5]naphthyridin-1-yl)butyl]-N-methoxybenzamide]
158 to 160	CCCc1nc2c(N)nc3ccccc3c2n1CCCCN(O)C(=O)NC(C)C [Example 44, N-[4-(4-Amino-2-propyl-1H-imidazo[4,5-c]quinolin-1-yl)butyl]-N-hydroxy-N′-isopropylurea]
